Patent publication US20250051338A1, “TYK2 DEGRADERS AND USES THEREOF” (Kymera Therapeutics, Inc., priority 2021, published 2025)

Legend:
Type in all cases: cell-based
[1] = target: T1, TYK2 (Homo sapiens, UniProt P29597); assay: TYK2 degradation MSD assay in human PBMC cells; design: endogenous in cells; host or cells: human PBMC; details: 4 to 24 hours incubation, read-out: TYK2 MSD DC50 rating in human PBMC
In short: (§1)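 Cells (0.4 million per well) were treated with a 9-point, 1:3 compound series from a top concentration of 1 to 10 μM for 4 to 24 hours at 37° C, then lysed in RIPA with protease/phosphatase inhibitors. Remaining TYK2 was quantified by sandwich MSD immunoassay; DC50 came from four-parameter nonlinear fits.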

[2] = target: T1, TYK2; assay: TYK2 degradation MSD assay in EBV-B cells; design: endogenous in cells; host or cells: EBV-B cells; details: 4 to 24 hours incubation, read-out: TYK2 MSD DC50 rating in EBV-B
In short: as §1

[3] = target: T1, TYK2; assay: TYK2 degradation MSD assay in OCI-LY10 cells; design: endogenous in cells; host or cells: EBV-B cells; details: 4 to 24 hours incubation, read-out: TYK2 MSD DC50 rating in OCI-LY10
In short: as §1

T1 sequence (P29597 whole entry): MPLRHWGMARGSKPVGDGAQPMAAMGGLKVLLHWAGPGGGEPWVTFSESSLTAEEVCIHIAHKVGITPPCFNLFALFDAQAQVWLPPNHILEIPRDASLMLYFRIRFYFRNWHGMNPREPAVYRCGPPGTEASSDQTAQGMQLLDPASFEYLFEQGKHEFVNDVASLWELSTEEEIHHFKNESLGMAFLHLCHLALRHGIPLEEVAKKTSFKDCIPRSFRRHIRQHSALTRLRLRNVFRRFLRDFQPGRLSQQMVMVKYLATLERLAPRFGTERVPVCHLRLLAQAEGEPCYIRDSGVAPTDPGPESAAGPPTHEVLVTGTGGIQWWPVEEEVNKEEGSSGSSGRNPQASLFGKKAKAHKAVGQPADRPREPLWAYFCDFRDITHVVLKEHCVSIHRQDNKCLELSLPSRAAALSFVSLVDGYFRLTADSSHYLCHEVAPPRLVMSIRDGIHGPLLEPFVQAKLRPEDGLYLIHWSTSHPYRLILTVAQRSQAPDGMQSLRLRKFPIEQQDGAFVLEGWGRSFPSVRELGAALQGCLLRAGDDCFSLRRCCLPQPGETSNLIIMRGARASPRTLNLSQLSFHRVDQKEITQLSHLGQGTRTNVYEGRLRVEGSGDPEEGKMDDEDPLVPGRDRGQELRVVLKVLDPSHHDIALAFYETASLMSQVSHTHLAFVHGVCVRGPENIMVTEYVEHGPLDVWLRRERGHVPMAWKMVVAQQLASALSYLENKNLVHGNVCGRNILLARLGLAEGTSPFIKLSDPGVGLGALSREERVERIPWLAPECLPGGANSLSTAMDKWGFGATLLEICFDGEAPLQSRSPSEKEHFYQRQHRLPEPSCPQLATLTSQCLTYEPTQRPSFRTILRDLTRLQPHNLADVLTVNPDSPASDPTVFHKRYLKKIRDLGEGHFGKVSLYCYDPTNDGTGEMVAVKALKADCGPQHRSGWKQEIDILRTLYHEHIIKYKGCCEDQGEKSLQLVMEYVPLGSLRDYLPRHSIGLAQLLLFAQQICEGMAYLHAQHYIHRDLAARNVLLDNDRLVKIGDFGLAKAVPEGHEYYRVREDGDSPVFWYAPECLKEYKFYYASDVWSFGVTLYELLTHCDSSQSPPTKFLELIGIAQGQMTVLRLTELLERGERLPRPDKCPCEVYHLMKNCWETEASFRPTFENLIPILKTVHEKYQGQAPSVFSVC

Structure (SMILES)	DC50 [1]	DC50 [2]	DC50 [3]
CNc1cc(Nc2cccc(-c3ccc(CN4CCN(c5ccc(-c6cccc7c6n(C)c(=O)n7C6CCC(=O)NC6=O)cc5)CC4)cn3)c2)nn2c(C(=O)N[C@@H]3C[C@@H]3F)cnc12 (stereo partly drawn) [Example K513]	> 100 nM	1 to 10 nM	1 to 10 nM
CNc1cc(Nc2cccn(-c3ccc(CN4CCN(CC5CCN(c6ccc(-c7ccc8c(c7)n(C)c(=O)n8C7CCC(=O)NC7=O)cc6)CC5)CC4)cn3)c2=O)nn2c(C(=O)N[C@@H]3C[C@@H]3F)cnc12 (stereo partly drawn) [Example K514]	> 100 nM	> 100 nM	< 1 nM
Cn1c(=O)n(C2CCC(=O)NC2=O)c2ccc(-c3ccc(N4CC5(CN(Cc6ccc(-c7cccc(Nc8ccc9ncc(C(=O)NC%10CC%10)n9n8)c7)nc6)C5)C4)cc3)cc21 (stereo not drawn) [Example K515]	> 100 nM	1 to 10 nM	1 to 10 nM
CNC1=CC(Nc2cccc(-c3ccc(CN4CCN(c5ccc(-c6cccc7c(N8CCC(=O)NC8=O)cncc67)cc5)CC4)cn3)c2)=NN2C1=NCC2C(=O)N[C@@H]1C[C@@H]1F (stereo partly drawn) [Example K516]	> 100 nM	1 to 10 nM	> 100 nM
CNc1cc(Nc2cccc(-c3ccc(CN4CCC(N5CC(N6CCN(c7cccc8c7n(C)c(=O)n8C7CCC(=O)NC7=O)CC6)C5)CC4)cn3)c2)nn2c(C(=O)N[C@@H]3C[C@@H]3F)cnc12 (stereo partly drawn) [Example K517]	> 100 nM	> 100 nM	< 1 nM
CNc1cc(Nc2cccc(N3CCC(CN4CCN(c5ccc(-c6ccc7c(c6)n(C)c(=O)n7C6CCC(=O)NC6=O)cc5)CC4)CC3)c2)nn2c(C(=O)N[C@@H]3C[C@@H]3F)cnc12 (stereo partly drawn) [Example K518]	> 100 nM	> 100 nM	< 1 nM
CNc1cc(Nc2cccn(-c3ccc(CN4CC5(C4)CN(c4ccc(-c6ccc7c(c6)n(C)c(=O)n7C6CCC(=O)NC6=O)cc4)C5)cn3)c2=O)nn2c(C(=O)N[C@@H]3C[C@@H]3F)cnc12 (stereo partly drawn) [Example K519]	> 100 nM	> 100 nM	< 1 nM
CNc1cc(Nc2cccc(N3CCC(CN4CC5(CCN(c6cccc7c6n(C)c(=O)n7C6CCC(=O)NC6=O)CC5)C4)CC3)c2)nn2c(C(=O)N[C@@H]3C[C@@H]3F)cnc12 (stereo partly drawn) [Example K520]	> 100 nM	> 100 nM	< 1 nM
CNc1cc(Nc2cccc(-c3ccc(CN4CC5(C4)CN(c4ccc(-c6ccc7c(c6)n(C)c(=O)n7C6CCC(=O)NC6=O)cc4)C5)cn3)c2)nn2c(C(=O)N[C@@H]3C[C@@H]3F)cnc12 (stereo partly drawn) [Example K522]	> 100 nM	> 100 nM	< 1 nM
CNc1cc(Nc2cccc(-c3ccc(CN4CCN(c5ccc6c(c5)n(C)c(=O)n6C5CCC(=O)NC5=O)CC4)cn3)c2)nn2c(C(=O)N[C@@H]3C[C@@H]3F)cnc12 (stereo partly drawn) [Example K523]	> 100 nM	> 100 nM	1 to 10 nM
Cn1c(=O)n(C2CCC(=O)NC2=O)c2ccc(N3CCN(C4CN(C5CCN(Cc6ccc(-c7cccc(Nc8ccc9ncc(C(=O)NC%10CC%10)n9n8)c7)nc6)CC5)C4)CC3)cc21 (stereo not drawn) [Example K524]	> 100 nM	> 100 nM	> 100 nM
CNc1cc(N2CCc3c(-c4ccc(CN5CC(C6CCN(C(=O)c7ccc(Cl)c(N8CCC(=O)NC8=O)c7)CC6)C5)cn4)cccc32)nn2c(C(=O)N[C@@H]3C[C@@H]3F)cnc12 [Example K525]	> 100 nM	> 100 nM	< 1 nM
CCNC(=O)c1cnc2c(NC)cc(Nc3cccc(-c4ccc(CN5CCN(c6ccc(-c7ccc8c(c7)n(C)c(=O)n8C7CCC(=O)NC7=O)cc6)CC5)cn4)c3OC)nn12 (stereo not drawn) [Example K526]	> 100 nM	> 100 nM	1 to 10 nM
CNC(=O)c1cnc2c(NC)cc(Nc3cccc(-c4ccc(CN5CCN(c6ccc(-c7ccc8c(c7)n(C)c(=O)n8C7CCC(=O)NC7=O)cc6)CC5)cn4)c3OC)nn12 (stereo not drawn) [Example K527]	> 100 nM	> 100 nM	1 to 10 nM
CNc1cc(Nc2cccc(-c3ccc(CN4CCN(c5ccc(-c6ccc7c(c6)n(C)c(=O)n7C6CCC(=O)NC6=O)cc5)CC4)cn3)c2OC)nn2c(C(=O)NC(C)C)cnc12 (stereo not drawn) [Example K528]	> 100 nM	> 100 nM	1 to 10 nM
CNc1cc(-c2ccc(-c3ccc(CN4CCN(c5ccc(-c6ccc7c(c6)n(C)c(=O)n7C6CCC(=O)NC6=O)cc5)CC4)cn3)cc2)nn2c(C(=O)N[C@@H]3C[C@@H]3F)cnc12 (stereo partly drawn) [Example K529]	> 100 nM	> 100 nM	1 to 10 nM
CNc1cc(-c2ccc(C3CCN(CC4CCN(c5ccc(-c6ccc7c(c6)n(C)c(=O)n7C6CCC(=O)NC6=O)cc5)CC4)CC3)cc2)nn2c(C(=O)N[C@@H]3C[C@@H]3F)cnc12 (stereo partly drawn) [Example K530]	> 100 nM	> 100 nM	> 100 nM

Structure (SMILES)	DC50 [1]	DC50 [2]	DC50 [3]
CNc1cc(Nc2cccnc2OC2CCN(CCN3CCN(c4ccc5c(c4)n(C)c(=O)n5C4CCC(=O)NC4=O)CC3)CC2)nn2c(C(=O)N[C@@H]3C[C@@H]3F)cnc12 (stereo partly drawn) [Example K531]	> 100 nM	> 100 nM	1 to 10 nM
CNc1cc(-c2cn(C)c3c(-c4ccc(CN5CCN(c6ccc(-c7ccc8c(c7)n(C)c(=O)n8C7CCC(=O)NC7=O)cc6)CC5)cc4)cccc23)nn2c(C(=O)N[C@@H]3C[C@@H]3F)cnc12 (stereo partly drawn) [Example K532]	> 100 nM	> 100 nM	> 100 nM
CNc1cc(Nc2cccc(-c3ccc(CN4CCN(c5ccc(-c6ccc7c(c6)n(C)c(=O)n7C6CCC(=O)NC6=O)cc5)CC4)cn3)c2)nn2c(-c3cn(C(C)C)nn3)cnc12 (stereo not drawn) [Example K534]	> 100 nM	> 100 nM	1 to 10 nM
CCc1nn(-c2cccc(F)c2OC)c2cc(Nc3ccc(CN(C)C4CCN(c5cccc6c5n(C)c(=O)n6C5CCC(=O)NC5=O)CC4)cn3)ncc12 (stereo not drawn) [Example K537]	> 100 nM	> 100 nM	> 100 nM
CNc1cc(Nc2cccc(-c3ccc(CN4CCN(c5ccc(-c6ccc7c(c6)n(C)c(=O)n7C6CCC(=O)NC6=O)cc5)CC4)cn3)c2OC)nn2c(C(=O)NC3CC3C)cnc12 (stereo not drawn) [Example K542]	> 100 nM	> 100 nM	1 to 10 nM
CNc1cc(Oc2ccn(C3CCN(CC4CCN(c5ccc(-c6ccc7c(c6)n(C)c(=O)n7C6CCC(=O)NC6=O)cc5)CC4)CC3)n2)nn2c(C(=O)N[C@@H]3C[C@@H]3F)cnc12 (stereo partly drawn) [Example K549]	> 100 nM	> 100 nM	> 100 nM
CNc1cc(-c2ccc(C3CCN(CC4CCN(c5ccc(-c6ccc7c(c6)n(C)c(=O)n7C6CCC(=O)NC6=O)cc5)CC4)CC3)cc2)c2n3c(cnc13)C(=O)N(C1CC1)C2 (stereo not drawn) [Example K550]	> 100 nM	> 100 nM	> 100 nM
CNc1cc(N2CCc3c(N4CCC(CN5CCN(c6ccc(-c7ccc8c(c7)n(C)c(=O)n8C7CCC(=O)NC7=O)cc6)CC5)CC4)cccc32)nn2c(C(=O)N[C@@H]3C[C@@H]3F)cnc12 (stereo partly drawn) [Example K551]	> 100 nM	1 to 10 nM	> 100 nM
O=C1CCN(c2cc(C(=O)N3CCC4(CC3)CN(Cc3ccc(-c5cccc6c5CCN6c5ccc6ncc(C(=O)NC7CC7)n6n5)nc3)C4)ccc2Cl)C(=O)N1 [Example K554]	> 100 nM	> 100 nM	> 100 nM
Cn1c(=O)n(C2CCC(=O)NC2=O)c2ccc(-c3ccc(N4CCN(Cc5ccc(-c6cccc(Nc7nn8c(C(=O)N[C@@H]9C[C@@H]9F)cnc8c8c7OCCN8)c6)nc5)CC4)cc3)cc21 (stereo partly drawn) [Example K557]	> 100 nM	> 100 nM	< 1 nM
CC#Cc1nn(-c2cccc(F)c2OC)c2cc(Nc3ccc(CN(C)C4CCN(c5cccc6c5n(C)c(=O)n6C5CCC(=O)NC5=O)CC4)cn3)ncc12 (stereo not drawn) [Example K558]	> 100 nM	> 100 nM	> 100 nM
CNc1cc(N2CCc3c(-c4ccc(CN5CCC(N6CCN(C(=O)c7ccc(Cl)c(N8CCC(=O)NC8=O)c7)CC6)CC5)cn4)cccc32)nn2c(C(=O)N[C@@H]3C[C@@H]3F)cnc12 [Example K559]	> 100 nM	> 100 nM	1 to 10 nM
CNc1cc(Nc2cccn(-c3ccc(C(=O)NCCCCc4cncc(N5CCC[C@H](C(=O)Nc6ccc(=O)n(CC(=O)O)c6)C5)c4)cn3)c2=O)nn2c(C(=O)N[C@@H]3C[C@@H]3F)cnc12 [Example K561]	> 100 nM	> 100 nM	> 100 nM
CNc1cc(Nc2cccc(-c3ccc(CN4CCN(c5ccc(-c6ccc7c(c6)n(C)c(=O)n7C6CCC(=O)NC6=O)cc5)CC4)cn3)c2F)nn2c(C(=O)N[C@@H]3C[C@@H]3F)cnc12 (stereo partly drawn) [Example K563]	> 100 nM	> 100 nM	< 1 nM
CNc1cc(Nc2cccc(CN3CCN(c4ccc(-c5ccc6c(c5)n(C)c(=O)n6C5CCC(=O)NC5=O)cc4)CC3)c2Cl)nn2c(C(=O)N[C@@H]3C[C@@H]3F)cnc12 (stereo partly drawn) [Example K564]	> 100 nM	> 100 nM	< 1 nM
CNc1cc(-c2ccc(CN3CCN(c4ccc(-c5ccc6c(c5)n(C)c(=O)n6C5CCC(=O)NC5=O)cc4)CC3)cc2)nn2c(C(=O)N[C@@H]3C[C@@H]3F)cnc12 (stereo partly drawn) [Example K565]	> 100 nM	> 100 nM	> 100 nM
CNc1cc(N2CCc3c(-c4ccc(CN5CCN([C@H]6CC[C@H](c7ccc(-c8ccc9c(c8)n(C)c(=O)n9C8CCC(=O)NC8=O)cc7)CC6)CC5)cn4)cccc32)nn2c(C(=O)N[C@@H]3CC3F)cnc12 (stereo partly drawn) [Example K566]	> 100 nM	> 100 nM	1 to 10 nM
